Results from article PMC10118286 (Journal of medicinal chemistry, 2021).

Tests used:
MDA-MB-231 cells [1] = details: read-out: Anti-proliferative active (IC50, μM) MDA-MB-231; cell viability assay for 24 h
MDA-MB-468 cells [2] = details: read-out: Anti-proliferative active (IC50, μM) MDA-MB-468; cell viability assay for 24 h
MDA-MB-231 cells [3] = experiment: Annexin-V/PI flow cytometry apoptosis, MDA-MB-231; format: cell-based; details: 24 h
MCF-10A cells = experiment: Cell viability; format: cell-based
MDA-MB-231 xenograft = MDA-MB-231 xenograft tumor model; format: in vivo, nude mice (BALB/c)
MDA-MB-231 cells [4] = experiment: Autophagy assay; format: cell-based; details: 5 μM
p-BRD4^S492 [5] = experiment: Western blot of p-BRD4 S492, MDA-MB-231 cells; format: cell-based; details: 0, 2.5, 5, and 10 μM for 24 h
MDA-MB-231 cells [6] = experiment: Colony formation assay, MDA-MB-231; format: cell-based; details: 0, 2.5, 5, and 10 μM for 7 days
MDA-MB-468 cells [7] = experiment: Colony formation assay, MDA-MB-468; format: cell-based; details: 0, 2.5, 5, and 10 μM for 7 days
[8] = Pharmacokinetic study in SD rats; format: in vivo, Sprague–Dawley (SD) rats
CK1 = details: read-out: CK1 inhibitory profile (IC50); triplicate, mean ± SD
MDA-MB-231R cells = experiment: Antiproliferative activity toward compound 1-resistant MDA-MB-231R cells; details: p < 0.01
BRD4 [9] = target: T1, BRD4 (Homo sapiens, UniProt O60885); experiment: CETSA in MDA-MB-231 cells, BRD4; format: cell-based; details: 5 μM, 6 h
MDA-MB-468 cells [10] = experiment: Autophagy assay; format: cell-based; details: 5 μM
p-BRD4^S492 [11] = experiment: Western blot of p-BRD4 S492, MDA-MB-468 cells; format: cell-based; details: 0, 2.5, 5, and 10 μM for 24 h
CK2α = CK2α (Homo sapiens, UniProt P68400); experiment: CETSA in MDA-MB-231 cells, CK2α; format: cell-based; details: 5 μM, 6 h
MDA-MB-468 cells [12] = experiment: Annexin-V/PI flow cytometry apoptosis, MDA-MB-468; format: cell-based; details: 24 h
BRD4 [13] = target: T1, BRD4; experiment: BRD4 inhibition assay; format: binding
CK2 [14] = target: T2, CK2 (Homo sapiens, UniProt P68400); details: 10 μM
CK2 [15] = target: T2, CK2; experiment: biochemical; details: read-out: Kinase inhibitory activity (1 μM, %) CK2
[16] = 25 and 50 mg/kg, intragastric, 19 days
[17] = intragastric, once a day for 19 days

T2 sequence (P68400 whole entry): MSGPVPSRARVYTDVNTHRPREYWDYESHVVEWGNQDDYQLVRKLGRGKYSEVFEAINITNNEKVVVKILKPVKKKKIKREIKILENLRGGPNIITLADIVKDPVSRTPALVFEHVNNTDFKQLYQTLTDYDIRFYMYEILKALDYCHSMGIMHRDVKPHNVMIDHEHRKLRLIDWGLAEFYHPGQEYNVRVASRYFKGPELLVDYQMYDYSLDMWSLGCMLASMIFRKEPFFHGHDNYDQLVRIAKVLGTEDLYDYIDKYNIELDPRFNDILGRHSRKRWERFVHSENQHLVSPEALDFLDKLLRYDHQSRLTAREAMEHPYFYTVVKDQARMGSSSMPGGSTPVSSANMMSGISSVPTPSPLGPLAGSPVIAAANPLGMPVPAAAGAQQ
Sequence of CK2α (P68400 whole entry): as above

N-(3-Chloro-4-(4-methylpiperazin-1-yl)phenyl)-2-(4-(6-methoxy-4-oxo-1,4-dihydroquinazolin-2-yl)phenoxy)acetamide [Compound 44k]
IC50 (MDA-MB-231 cells [1]): 14.6 ± 0.77 µM
IC50 (MDA-MB-468 cells [2]): 16.4 ± 0.85 µM

COc1cc(OC)c2c(=O)[nH]c(-c3ccc(OCC(=O)Nc4ccc(N5CCN(C)CC5)c(Cl)c4)cc3)nc2c1 [Compound 44e, N-(3-Chloro-4-(4-methylpiperazin-1-yl)phenyl)-2-(4-(5,7-dimethoxy-4-oxo-1,4-dihydroquinazolin-2-yl)phenoxy)acetamide]
apoptosis (Annexin-V/PI) (MDA-MB-231 cells [3]): dose-dependently induced apoptosis
toxicity to the normal breast cell line MCF-10A (MCF-10A cells): did not have obvious toxicity
tumor growth inhibition (in words) (MDA-MB-231 xenograft; [16]): dose-dependent tumor growth inhibition
Ki-67 immunohistochemical staining in tumor tissue (MDA-MB-231 xenograft; 25 or 50 mg/kg): significantly inhibit the proliferation
expression of c-Myc and p-AKT^S129 in xenograft tumor tissues (IHC) (MDA-MB-231 xenograft; 25 or 50 mg/kg, compared with control group): significantly reduced
HE staining of heart, liver, spleen, lung, and kidney tissues (MDA-MB-231 xenograft; after 19 days of treatment): No significant morphologic or structural changes
mouse body weight and death (MDA-MB-231 xenograft; [17]): No significant changes in mouse body weight and death
autophagy induction (MDA-MB-231 cells [4]): significantly induced autophagy
level of p-BRD4^S492 (p-BRD4^S492 [5]): dose-dependently downregulated
colony formation (MDA-MB-231 cells [6]): dose-dependently suppressed growth and reduced the number of colonies
colony formation (MDA-MB-468 cells [7]): dose-dependently suppressed growth and reduced the number of colonies
tumor growth inhibition (in words) (MDA-MB-468 xenograft; [16]): dose-dependent tumor growth inhibition
HE staining of heart, liver, spleen, lung, and kidney tissues (MDA-MB-468 xenograft; after 19 days of treatment): No significant morphologic or structural changes
mouse body weight and death (MDA-MB-468 xenograft; [17]): No significant changes in mouse body weight and death
CL ([8]; iv 1 mg/kg): 57.4 ± 1.3 (mL/min)/kg
time at which the highest concentration was observed ([8]; po 10 mg/kg): 5.14 ± 0.71 h
IC50 (CK1): > 10 µM
anticancer activity against compound 1-resistant cells (MDA-MB-231R cells): able to alleviate drug resistance of 1
thermal stability of BRD4 (CETSA) (BRD4 [9]): improved the thermal stability
autophagy induction (MDA-MB-468 cells [10]): significantly induced autophagy
level of p-BRD4^S492 (p-BRD4^S492 [11]): dose-dependently downregulated
thermal stability of CK2α (CETSA) (CK2α): improved the thermal stability
apoptosis (Annexin-V/PI) (MDA-MB-468 cells [12]): dose-dependently induced apoptosis

Cc1sc2c(c1C)C(c1ccc(Cl)cc1)=N[C@@H](CC(=O)OC(C)(C)C)c1nnc(C)n1-2 [Compound 1, JQ1, reference compound]
inhibition at 1 µM (BRD4 [13]; read-out: Kinase inhibitory activity (1 μM, %) BRD4): 97 ± 1.32%

N-(3-Chloro-4-(4-methylpiperazin-1-yl)phenyl)-2-(4-(6-fluoro-4-oxo-1,4-dihydroquinazolin-2-yl)phenoxy)acetamide [Compound 44j]
IC50 (MDA-MB-231 cells [1]): 6.94 ± 0.68 µM
IC50 (MDA-MB-468 cells [2]): 7.51 ± 1.13 µM

2-(4-(5,7-Dimethoxy-4-oxo-1,4-dihydroquinazolin-2-yl)-phenoxy)-N-morpholinoacetamide [Compound 42a]
IC50 (MDA-MB-231 cells [1]): 14.7 ± 1.55 µM
IC50 (MDA-MB-468 cells [2]): 12.5 ± 0.87 µM

COc1cc(OC)c2c(=O)[nH]c(-c3ccc(OCC(=O)O)cc3)nc2c1 [Compound 26, 2-(4-(5,7-Dimethoxy-4-oxo-1,4-dihydroquinazolin-2-yl)-phenoxy)acetic Acid]
inhibitory ratio on CK2 (CK2 [14]): 45%
inhibitory ratio on BRD4 (BRD4 [13]; 10 μM): 63%

N-(3-Chloro-4-(4-methylpiperazin-1-yl)phenyl)-2-(4-(6-chloro-4-oxo-1,4-dihydroquinazolin-2-yl)phenoxy)acetamide [Compound 44l]
IC50 (MDA-MB-231 cells [1]): 14.4 ± 0.58 µM
IC50 (MDA-MB-468 cells [2]): 15.3 ± 0.72 µM

2-(4-(5,7-Dimethoxy-4-oxo-1,4-dihydroquinazolin-2-yl)-2,6-dimethylphenoxy)-N-morpholinoacetamide [Compound 42b]
IC50 (MDA-MB-231 cells [1]): 20.6 ± 0.62 µM
IC50 (MDA-MB-468 cells [2]): 18.5 ± 1.23 µM

COc1cc(OC)c2c(=O)[nH]c(-c3cc(C)c(OCC(=O)Nc4nc5ccccc5[nH]4)c(C)c3)nc2c1 [Compound 42j, N-(1H-Benzo[d]imidazol-2-yl)-2-(4-(5,7-dimethoxy-4-oxo-1,4-dihydroquinazolin-2-yl)-2,6-dimethylphenoxy)acetamide]
inhibition at 1 µM (CK2 [15]): 25.6 ± 6.57%

N-(3-Chloro-4-(4-methylpiperazin-1-yl)phenyl)-2-(4-(7-chloro-4-oxo-1,4-dihydroquinazolin-2-yl)phenoxy)acetamide [Compound 44m]
IC50 (MDA-MB-231 cells [1]): 5.21 ± 0.82 µM
IC50 (MDA-MB-468 cells [2]): 6.23 ± 0.55 µM

6-Methoxy-2-(2-methoxyphenyl)-4H-chromen-4-one [Compound 33c]
IC50 (MDA-MB-231 cells [1]): > 50 µM
IC50 (MDA-MB-468 cells [2]): > 50 µM

N-(3-Chloro-4-(4-methylpiperazin-1-yl)phenyl)-2-(4-(7-methyl-4-oxo-1,4-dihydroquinazolin-2-yl)phenoxy)acetamide [Compound 44n]
IC50 (MDA-MB-231 cells [1]): 17.4 ± 0.56 µM
IC50 (MDA-MB-468 cells [2]): 16.2 ± 1.83 µM

2-(4-(5,7-Dimethoxy-4-oxo-1,4-dihydroquinazolin-2-yl)-phenoxy)-N-(4-methylpiperazin-1-yl)acetamide [Compound 42g]
IC50 (MDA-MB-231 cells [1]): 12.8 ± 1.72 µM
IC50 (MDA-MB-468 cells [2]): 13.7 ± 0.23 µM
